In PMC10564737, “Structure-based design of a phosphotyrosine-masked covalent ligand targeting the E3 ligase SOCS2” (Nature Communications, 2023):
Where “and” joins values, the source holds several entries; their conditions need not be identical. Equal values may be shown once.

Key:
[1] = biological target: T1, HiBiT-SOCS2 fusion in HeLa cells (Homo sapiens, UniProt O14508); test: Split-NanoLuc CETSA, live-cell mode; format: cell-based; set-up: Produrg CETSA screening, raw signal: reference not given here; details: for Produrg CETSA screening, raw signal: 50uM 20hrs; for Tagg shift, live-cell CETSA: HeLa cells; for Tagg shift, live-cell CETSA / ΔT: 50 μM, 20 h; for ΔT / ΔT, individual replicates n1-n3: Prodrug screen CETSA; for ΔT: live HeLa cells, Mean n = 3
T1 construct: encoding SOCS2 (32–198) in pBiT3.1-N expression vector; expressed in transfected cells; host or cells: HeLa
Experimental: One of the challenges with small-molecule binders displaying on-target activity with recombinant proteins, is to translate their utility to a cellular context. […] One of the advantages of CETSA is that target engagement can be monitored without the need for the development of a cell-permeable tracer molecule.
We utilized CETSA in a live-cell mode to evaluate the efficacy and rank the different prodrugs. We treated live HeLa cells with 50 μM compound (prodrugs) for 20 h and monitored Tagg shift as a proxy for the combo of prodrug permeability and unmasking (Fig. 4d). […] The observation could be because the POM group unmasking requires only esterase unlike the reliance of compounds 21–23 on esterase and phosphoramidase for unmasking an aryloxy phosphoramidate group.
N-terminal HiBiT-SOCS2 fusion was generated by encoding SOCS2 (32–198) in pBiT3.1-N expression vector (Promega). The transfection and target engagement assay were performed by modifying a NanoLuc target engagement protocol (Promega) with some small modifications. Briefly, HiBiT-SOCS2 fusion construct was transfected into HeLa cells using FuGENE HD (Promega) according to the manufacturer’s protocol. HiBiT-SOCS2 fusion construct was diluted into Transfection Carrier DNA (Promega) at a mass ratio of 1:100 or 1:10 for permeabilised and live-cell CETSA respectively. FuGENE HD was added at a ratio of 1:3 (μg DNA: μL FuGENE HD). 1 part (vol) of FuGENE HD complexes thus formed were combined with 20 parts (vol) of HeLa cells suspended at a density of 2 × 10^5 cells/mL, followed by incubation in a humidified, 37 °C + 5% CO2 incubator. After 20 h of incubation HeLa cells were detached and resuspended at a density of 2.5 × 10^5 cells/mL in Opti-MEM media without serum or phenol red but supplemented with protease inhibitor cocktail (Roche). Compounds stocks were added to cell suspension to maintain a final DMSO concentration of 1%. For the permeabilised assay format, 96-well PCR plates (Thermo) were pre-treated with digitonin to have a final well concentration of 50 μg/ml. 50 μl Opti-MEM cell suspension was then aliquoted to each well of the 96-well plate. The plates are then covered with microporous tape sheet (Qiagen) prior to incubation in a humidified, 37 °C + 5% CO2 incubator. Post-incubation we heat the PCR plates in 16-point temperature (split across two runs) curve spanning degrees 40-72 °C temperature span (CFX96 Touch Real-Time PCR Detection System, BioRad). The thermal cycler block was allowed to rise to the designated temperatures prior to placement of the PCR plates into the heating block and heat treatment for 3 min. After incubating the plates at room temperature for over 3 min, 50 μl of the Nano-Glo HiBiT Lytic mix (Promega) was added to each well. Samples were mixed by pipetting and placing the plate on an orbital shaker (600 rpm) for 5 min. 20 μl of the samples (in triplicates) were transferred to a AlphaPlate-384 plate (Perkin Elmer). Luminescence was recorded with GloMax Discover Microplate Reader (Promega). To generate apparent Tagg curves, the data is first converted to percent stabilized by relating the observed luminescence to the luminescence of the lowest temperature (40 °C) for that given sample. Data are then fitted to obtain apparent Tagg values using the Boltzmann Sigmoid equation using Graphpad Prism 9.

SBC2 = biological target: T2, SBC2 (Homo sapiens, UniProt O14508); test: Differential scanning fluorimetry (DSF); format: binding; details: 5 µM SBC2 + 100 µM MN551
T2 construct: SOCS2 (amino acids 32–198); His6 (N, cleaved yes); made in house; host or cells: E. coli BL21(DE3)
Experimental: DSF experiments were performed on a Biorad CFX96 RT-PCR machine. […] of SBC2 were incubated with […] MN551 (2 % DMSO) or DMSO control in 50 mM Tris, pH 8.0, 50 mM NaCl and 6.6 × SYPRO Orange. The temperature was ramped up in 1 °C steps between 25 and 95 °C with 30 s incubation at each step. Melting curves were analyzed by determining the minimum of the first derivative using the Biorad CFX Manager software.

[2] = n=1, temperature point 4 of 16, temperature not given
[3] = n=1, temperature point 5 of 16, temperature not given
[4] = n=1, temperature point 6 of 16, temperature not given
[5] = n=1, temperature point 7 of 16, temperature not given
[6] = n=1, temperature point 8 of 16, temperature not given
[7] = n=1, temperature point 9 of 16, temperature not given
[8] = n=1, temperature point 10 of 16, temperature not given
[9] = n=1, temperature point 11 of 16, temperature not given
[10] = n=1, temperature point 12 of 16, temperature not given
[11] = n=1, temperature point 13 of 16, temperature not given
[12] = n=1, temperature point 14 of 16, temperature not given
[13] = n=1, temperature point 15 of 16, temperature not given
[14] = n=1, temperature point 16 of 16, temperature not given
[15] = n=2, temperature point 1 of 16, temperature not given
[16] = n=2, temperature point 2 of 16, temperature not given
[17] = n=2, temperature point 3 of 16, temperature not given
[18] = n=2, temperature point 5 of 16, temperature not given
[19] = n=2, temperature point 6 of 16, temperature not given
[20] = n=2, temperature point 7 of 16, temperature not given
[21] = n=2, temperature point 8 of 16, temperature not given
[22] = n=2, temperature point 9 of 16, temperature not given
[23] = n=2, temperature point 10 of 16, temperature not given
[24] = n=2, temperature point 11 of 16, temperature not given
[25] = n=2, temperature point 12 of 16, temperature not given
[26] = n=2, temperature point 13 of 16, temperature not given
[27] = n=2, temperature point 14 of 16, temperature not given
[28] = n=2, temperature point 15 of 16, temperature not given
[29] = n=2, temperature point 16 of 16, temperature not given

T1 sequence (O14508 32-198): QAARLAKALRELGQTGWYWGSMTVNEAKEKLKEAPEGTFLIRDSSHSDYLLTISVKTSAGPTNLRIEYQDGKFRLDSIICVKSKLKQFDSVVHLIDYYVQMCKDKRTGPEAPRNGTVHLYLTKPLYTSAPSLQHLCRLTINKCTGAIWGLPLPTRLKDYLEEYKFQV
T1 sequence (Q15370 whole entry, further chain, the tested form may be a part): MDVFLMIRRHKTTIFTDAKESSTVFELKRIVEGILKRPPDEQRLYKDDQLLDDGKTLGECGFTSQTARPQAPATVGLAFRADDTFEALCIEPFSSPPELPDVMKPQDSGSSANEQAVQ
T1 sequence (Q15369 whole entry, further chain, the tested form may be a part): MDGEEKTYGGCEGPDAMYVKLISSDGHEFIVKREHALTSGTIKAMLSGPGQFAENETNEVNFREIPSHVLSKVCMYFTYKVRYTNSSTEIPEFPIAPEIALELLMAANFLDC
T2 sequence (O14508 32-198): as the sequence (O14508 32-198) above
T2 sequence (Q15370 1-104 partner limits assumed): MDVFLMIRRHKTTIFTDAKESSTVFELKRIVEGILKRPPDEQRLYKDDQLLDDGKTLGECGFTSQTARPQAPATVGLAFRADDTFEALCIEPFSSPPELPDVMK
T2 sequence (Q15369 17-112 partner limits assumed): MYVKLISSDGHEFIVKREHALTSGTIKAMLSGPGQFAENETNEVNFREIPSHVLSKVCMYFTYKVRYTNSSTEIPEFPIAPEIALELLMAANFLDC

CC(C)(C)C(=O)OCOP(=O)(OCOC(=O)C(C)(C)C)Oc1ccc(C[C@H](NC(=O)Cc2ccc(F)cc2)C(=O)NCc2cccc(NC(=O)CCl)c2)cc1 [MN714]
Produrg CETSA screening, raw signal [1, 2]: 54032 and 80376 and 105532 | Produrg CETSA screening, raw signal [1, 3]: 90582 and 99338 and 174703 | Produrg CETSA screening, raw signal [1, 4]: 139751 and 167289 and 205811 | Produrg CETSA screening, raw signal [1, 5]: 195985 and 234426 and 281536 | Produrg CETSA screening, raw signal [1, 6]: 244882 and 229067 and 241218 | Produrg CETSA screening, raw signal [1, 7]: 256289 and 277913 and 306068 | Produrg CETSA screening, raw signal [1, 8]: 320763 and 321677 and 363535 | Produrg CETSA screening, raw signal [1, 9]: 372242 and 395029 and 425781 | Produrg CETSA screening, raw signal [1, 10]: 423872 and 436050 and 431053 | Produrg CETSA screening, raw signal [1, 11]: 366601 and 377426 and 420904 | Produrg CETSA screening, raw signal [1, 12]: 362714 and 367767 and 404526 | Produrg CETSA screening, raw signal [1, 13]: 419874 and 426204 and 438598 | Produrg CETSA screening, raw signal [1, 14]: 418575 and 457050 and 469972 | Produrg CETSA screening, raw signal [1, 15]: 80745 and 156547 and 107330 | Produrg CETSA screening, raw signal [1, 16]: 108259 and 123901 and 132020 | Produrg CETSA screening, raw signal [1, 17]: 72847 and 107017 and 131297 | Produrg CETSA screening, raw signal ([1]; n=2, temperature point 4 of 16, temperature not given): 98808 and 124869 and 145900 | Produrg CETSA screening, raw signal [1, 18]: 73033 and 127162 and 126167 | Produrg CETSA screening, raw signal [1, 19]: 163432 and 190209 and 191740 | Produrg CETSA screening, raw signal [1, 20]: 242162 and 237309 and 241895 | Produrg CETSA screening, raw signal [1, 21]: 244528 and 287537 and 296136 | Produrg CETSA screening, raw signal [1, 22]: 280328 and 320314 and 333974 | Produrg CETSA screening, raw signal [1, 23]: 308215 and 329369 and 371393 | Produrg CETSA screening, raw signal [1, 24]: 342961 and 395565 and 371949 | Produrg CETSA screening, raw signal [1, 25]: 424106 and 411160 and 460047 | Produrg CETSA screening, raw signal [1, 26]: 397001 and 430594 and 470735 | Produrg CETSA screening, raw signal [1, 27]: 424646 and 453700 and 455391 | Produrg CETSA screening, raw signal [1, 28]: 402201 and 445060 and 429166 | Produrg CETSA screening, raw signal [1, 29]: 423530 and 445088 and 469114 | Produrg CETSA screening, raw signal ([1]; n=3, Temp, 0C 62.3): 15991 | Produrg CETSA screening, raw signal ([1]; n=3, Temp, 0C 66.1): 13409 and 15862 and 18690 | Produrg CETSA screening, raw signal ([1]; n=3, Temp, 0C 69.3): 10941 and 16787 and 17374 | Produrg CETSA screening, raw signal ([1]; n=3, Temp, 0C 71.1): 8072 and 11559 and 15104 | Produrg CETSA screening, raw signal ([1]; n=3, Temp, 0C 72): 10040 and 12206 and 15596 | EC50 ([1]; 2 hours EC50, MN714 dose response CETSA, Mean): 3.77 µM | EC50 ([1]; 2 hours EC50, individual replicates n1-n4, MN714 dose response CETSA, single replicates): 2.69 µM and 3.55 µM and 5.05 µM | EC50 ([1]; 8 hours EC50, MN714 dose response CETSA, Mean): 2.52 µM | EC50 ([1]; 8 hours EC50, individual replicates n1-n4, MN714 dose response CETSA, single replicates): 1.93 µM and 3.11 µM and 0.902 µM and 4.13 µM | EC50 ([1]; EC50, live-cell CETSA, 2 h of treatment): 3.8 µM | EC50 ([1]; EC50, live-cell CETSA, 8 h of treatment): 2.5 µM | Tagg shift, live-cell CETSA [1]: consistent superior SOCS2 engagement | ΔT [1]: 4.89 oC | ΔT, individual replicates n1-n3 ([1]; single replicates): 4.83 oC and 5.25 oC and 4.59 oC

O=C(CCl)Nc1cccc(CNC(=O)[C@H](Cc2ccc(OP(=O)(O)O)cc2)NC(=O)Cc2ccc(F)cc2)c1 [MN551]
Produrg CETSA screening, raw signal [1, 2]: 51906 and 74271 and 83631 | Produrg CETSA screening, raw signal [1, 3]: 62246 and 51464 and 85761 | Produrg CETSA screening, raw signal [1, 4]: 108788 and 87275 and 106856 | Produrg CETSA screening, raw signal [1, 5]: 132974 and 140531 and 140435 | Produrg CETSA screening, raw signal [1, 6]: 134181 and 150079 and 139460 | Produrg CETSA screening, raw signal [1, 7]: 189390 and 210146 and 247725 | Produrg CETSA screening, raw signal [1, 8]: 222849 and 214562 and 260657 | Produrg CETSA screening, raw signal [1, 9]: 306316 and 347377 and 363834 | Produrg CETSA screening, raw signal [1, 10]: 497790 and 541910 and 544913 | Produrg CETSA screening, raw signal [1, 11]: 482302 and 510836 and 519812 | Produrg CETSA screening, raw signal [1, 12]: 563762 and 585700 and 590798 | Produrg CETSA screening, raw signal [1, 13]: 665581 and 663053 and 701220 | Produrg CETSA screening, raw signal [1, 14]: 691060 and 708174 and 757604 | Produrg CETSA screening, raw signal [1, 15]: 29701 and 32684 and 58114 | Produrg CETSA screening, raw signal [1, 16]: 46564 and 62785 and 77591 | Produrg CETSA screening, raw signal [1, 17]: 123506 and 129184 and 115193 | Produrg CETSA screening, raw signal [1, 18]: 47087 and 55743 and 78578 | Produrg CETSA screening, raw signal [1, 19]: 98105 and 105595 and 117544 | Produrg CETSA screening, raw signal [1, 20]: 144950 and 158240 and 171572 | Produrg CETSA screening, raw signal [1, 21]: 135100 and 139766 and 168368 | Produrg CETSA screening, raw signal [1, 22]: 229091 and 227474 and 261588 | Produrg CETSA screening, raw signal [1, 23]: 267450 and 271378 and 303431 | Produrg CETSA screening, raw signal [1, 24]: 327561 and 343740 and 362839 | Produrg CETSA screening, raw signal [1, 25]: 483965 and 500271 and 541590 | Produrg CETSA screening, raw signal [1, 26]: 506853 and 509845 and 531489 | Produrg CETSA screening, raw signal [1, 27]: 591756 and 578279 and 588133 | Produrg CETSA screening, raw signal [1, 28]: 597206 and 580381 and 582472 | Produrg CETSA screening, raw signal [1, 29]: 620665 and 663583 and 665832 | Produrg CETSA screening, raw signal ([1]; n=3, Temp, 0C 59.2): 55622 | Produrg CETSA screening, raw signal ([1]; n=3, Temp, 0C 62.3): 33828 and 45066 and 46746 | Produrg CETSA screening, raw signal ([1]; n=3, Temp, 0C 66.1): 15770 and 17572 and 22773 | Produrg CETSA screening, raw signal ([1]; n=3, Temp, 0C 69.3): 14086 and 13763 and 18636 | Produrg CETSA screening, raw signal ([1]; n=3, Temp, 0C 71.1): 13296 and 19284 and 20568 | Produrg CETSA screening, raw signal ([1]; n=3, Temp, 0C 72): 12696 and 17884 and 19057 | Tagg shift, live-cell CETSA [1]: 2 °C | ΔT [1]: 1.99 oC | ΔT, individual replicates n1-n3 ([1]; single replicates): 0.38 oC and 4.34 oC and 1.24 oC | ΔTm, shift in the melting temperature of SBC2 (SBC2): 6 °C
